According to US20240059727A1, “METHOD OF MAKING NICOTINAMIDE RIBOFURANOSIDE SALTS BY SALT METATHESIS, THE CRYSTALLINE FORM OF ITS TOSYLATE SALT AND THE CO-CRYSTALLIZED FORM OF ITS CHLORIDE:IODIDE SALT” (BIOSYNTH AG, priority 2021, published 2024):

Assay: Solubility in methanol
Settings: volume of methanol per 1 g salt; lower volume = better solubility

Row | Compound | methanol needed for dissolving 1 g of the salt
1 | NC(=O)c1ccc[n+]([C@@H]2O[C@H](CO)[C@@H](O)[C@H]2O)c1.[Cl-] [NR·Cl, nicotinamide-β-D-ribofuranoside chloride] | 40 mL
2 | nicotinamide-β-D-ribofuranoside tosylate [NR·p-tosylate] | 15 mL
3 | NC(=O)c1ccc[n+](C2OC(CO)C(O)C2O)c1.[Br-] [NR·Br, nicotinamide-β-D-ribofuranoside bromide] | 50 mL
